Test: Dissolution time of a quantity corresponding to 75 mg of Imidapril in 30 ml of water at room temperature
Format: physicochemical
Conditions: quantity of formulation corresponding to 75 mg of Imidapril added to 30 ml of stirred water at room temperature
Method: This crystalline condition makes it possible to obtain a quick dissolution Imidapril powder, i.e., having a total dissolution time of the powder of 30 sec for a quantity of 75 mg of Imidapril in 30 ml of water at room temperature (25° C.). […] The apparent dissolution time is noted.

- Time (s) (apparent dissolution time): 420 s
Structure (SMILES): CCOC(=O)[C@H](CCc1ccccc1)N[C@@H](C)C(=O)N1C(=O)N(C)C[C@H]1C(=O)O [Standard Imidapril, Imidapril]

Reference: patent US20080167358A1, “Methods for Obtaining a Fast Dissolving Imidapril Powder” (priority 2005, published 2008)
